Reference: patent US20240318142A1, “METHOD FOR PRODUCING RENAL INTERSTITIAL PROGENITOR CELLS, ERYTHROPOIETIN-PRODUCING CELLS, AND METHOD FOR PRODUCING RENIN-PRODUCING CELLS” (KYOTO UNIVERSITY, priority 2021, published 2024)

Columns and labels:
[1] = test system: hiPSC-derived IPCs; test: qRT-PCR of EPO after further differentiation induction from IPCs (renal EPO-producing cells); format: cell-based, human; details: for EPO expression: SHH signal modulators under induction conditions using CHIR99021, RA, and A83-01, Days 11 to 14; for EPO expression / effect on the SAG-induced EPO up-regulation: FIG. 15; for effect on the SAG-induced EPO up-regulation: modulator together with SAG 500 nM, CHIR99021, RA, and A83-01; for EPO expression compared to the combination of SB431542 and SAG: combination of A83-01 and SAG in CFR medium, FIG. 10; for expression of EPO: combination of SB431542 and SAG (500 nM), 5% O2, FG-4592 and RA present, FIG. 9
Method: (§1) FIG. 9 is a diagram illustrating results of qRT-PCR analysis of EPO and renin carried out on Days 11 to 14, that is, after obtaining renal interstitial progenitor cells, for comparison of the effects of combinations of candidate differentiation induction factors for renal EPO-producing cells or renin-producing cells. The SAG concentration was 500 nM, and the concentrations of SB and CHIR are expressed in the unit of μM.
(§2) FIG. 10 is a diagram illustrating results of qRT-PCR analysis of EPO and renin on Days 11 to 14, that is, after obtaining renal interstitial progenitor cells, for comparison of the effects of combinations of various candidate differentiation induction factors. The SAG concentration was 500 nM; the concentrations of SB and A83 are expressed in the unit of μM; LDN is expressed in the unit of nM; and TGFβ1, BMP7, and activin (ACT) are expressed in the unit of ng/mL.
FIG. 15 is a diagram illustrating results of qRT-PCR analysis of EPO carried out on Days 11 to 14, that is, after obtaining renal interstitial progenitor cells, for comparison of the effects of various Sonic Hedgehog (SHH) signal modulators under induction conditions using CHIR99021, RA, and A83-01. So, Vi, Pu, Sa, and Ga represent sonidegib, vismodegib, purmophamine, SANT-1, and GANT61, respectively, and their concentrations are expressed in the unit of μM. The concentration of SAG was 500 nM, and the concentration of SHH was 100 ng/mL.
(§3) First, using the IPCs on Day 11, culture was performed under 5% O2 hypoxic conditions in the presence of FG-4592 (N-[(4-hydroxy-1-methyl-7-phenoxy-3-isoquinolinyl)carbonyl]-glycine) and RA with addition of various factors. By measuring the expression of EPO and renin, screening for induction factors for renin-producing cells and renal EPO-producing cells was carried out.
Subsequently, the effects of various SHH signal modulators in a system for differentiation induction from IPCs to EPO-producing cells were investigated (FIG. 15). Several SMO antagonists (sonidegib, vismodegib, and SANT-1) and agonists (SAG and purmophamine), a GLI1 inhibitor (GANT61), and human SHH protein were tested.

[2] = test system: hiPSC-derived IPCs; test: qRT-PCR of renin and mesangial/JG cell markers after further differentiation induction from IPCs (renin-producing cells); format: cell-based, human
Method: as §1, §2
FIG. 11 is a diagram illustrating results of qRT-PCR analysis of renin on Days 11 to 14, that is, after obtaining renal interstitial progenitor cells, for comparison of the effects of various factors. In the presence of CHIR99021, RA, and FG-4592 (CFR), the effects of BMP4, BMP5, and BMP7 (10 ng/mL or 100 ng/mL) were investigated under conditions with or without treatment by SB431542 (1 μM). SB is expressed in the unit of […], and TGFβ1 and ACT are expressed in the unit of ng/mL.
FIG. 12 is a diagram illustrating results of qRT-PCR analysis of marker expression for the mesangial cell lineage (GATA3, renin, and GJA5) and IPCs (FOXD1) at Hour 0 and Hour 96 after treatment with CFR+BMP7+SB. iPSC represents the control.
FIG. 13 is a diagram illustrating results of qRT-PCR analysis of cells that were subjected to treatment under hypoxic (CFR+B7+SB in 5% O2) or normal oxygen (CFR+B7+SB minus FG-4592 in 20% O2) conditions on Days 11 to 15, that is, after obtaining renal interstitial progenitor cells, which analysis was carried out for markers for JG (renin and GJA4) and mesangial cells (EBF1, GJA5, ITGA8, and GATA3). * indicates p<0.05; ** indicates p<0.01; and NS indicates “no significant difference” (Student's t-test).
FIG. 14 is a diagram illustrating results of qRT-PCR analysis of cells that were subjected to treatment with VEGF (100 ng/mL) or axitinib (3 μM) and also to treatment under hypoxic conditions (CFR+B7+SB in 5% O2) or normal conditions (CFR+B7+SB minus FG-4592 in 20% O2) on Days 11 to 15, that is, after obtaining renal interstitial progenitor cells, which analysis was carried out for markers for JG (renin and GJA4), mesangial cells (EBF1, GJA5, ITGA8, and GATA3), and VEGFA.
as §3

[3] = test system: PPS cells obtained by differentiation induction from human iPS cells; test: Induction of FOXD1-positive renal interstitial progenitor cells (IPC) from PPS cells, flow cytometric analysis (FOXD1 and OSR1) on Day 11; format: cell-based; details: for induction efficiency for OSR1-positive FOXD1-positive cells: addition of IL-1β (10 ng/mL) and SAG (500 nM) together on Days 6 to 8, FIG. 6; for induction of FOXD1-positive cells: 5 days of treatment (Days 6 to 11) with the combination CHIR99021 1 μM, SB431542 10 μM and RA 100 nM, FIG. 3
Method: FIG. 3 is a diagram illustrating results of flow cytometric analysis (FOXD1 and OSR1), carried out on Day 11, of cells that were treated with various combinations of factors during the differentiation induction period of Days 6 to 11 (the period corresponding to “Screening” in FIG. 1). The following concentrations were employed: 1 μM CHIR99021 (CHIR), 10 μM SB431542 (SB), 100 nM retinoic acid (RA), 200 ng/mL FGF9, and 25 ng/mL Noggin.
FIG. 5 is a diagram illustrating results of flow cytometric analysis (FOXD1 and OSR1), carried out on Day 11, of cells that were treated or not treated with Smoothened Agonist (SAG) (concentration, 500 nM) during the differentiation induction period of Days 6 to 8. ** indicates p<0.01 (Student's t-test), and NS indicates “no significant difference”.
FIG. 6 is a diagram illustrating results of flow cytometric analysis (FOXD1 and OSR1), carried out on Day 11, of cells that were treated with various factors during the differentiation induction period of Days 6 to 8. The following concentrations were employed: 1 μM CHIR, 10% Wnt3a, 200 ng/mLRSPO1 (R-Spondin-1), 500 nM SAG, 10 ng/mL IL-1β, 50 ng/mL Estradiol, and 10 ng/mL TGFβ1.
Human iPS cells (hiPSCs) (17K6:OSR1-GFP/FOXD1-tdTomato double knock-in hiPSCs) were first subjected to enzyme treatment for 5 minutes using a 1:1 mixture of TrypLE Select Enzyme (Thermo Fisher Scientific) and 0.5 mM EDTA/PBS, and then washed with PBS(−). Thereafter, the cells were detached using a cell scraper, and then dissociated into single cells by gentle pipetting. One day before the start of differentiation, the cells were plated into a 24-well plate (CORNING) at a density of 1.3×10^4 cells/cm^2 together with 0.5 mL of Stem Fit AK02N (Ajinomoto Healthy Supply Co., Inc.) supplemented with 10 μM Y-27632 and 2.4 μL/mL iMatrix-511 (Matrixome). Twenty-four hours later (Day 0), 5 μM CHIR99021 (Wako), 10 nM RA (Sigma), 1 ng/mL BMP4 (Peprotech), and 100 ng/mL bFGF (Wako) were added to a serum-free differentiation medium comprising DMEM/F12 Glutamax (Thermo Fisher Scientific), B27 supplement minus vitamin A (Thermo Fisher Scientific), and 0.5× penicillin/streptomycin (hereinafter referred to as basal medium), and then culture was started. Twenty-four hours thereafter (Day 1), culture was performed with a basal medium supplemented with 5 μM CHIR99021, 100 ng/mL bFGF, and 1 ng/mL BMP7 (R&D Systems). On Day 2, the medium was switched to a basal medium supplemented with 5 μM CHIR99021, 1 ng/mL BMP7, and 10 μM A83-01 (Wako). On Day 3, the medium was switched to a basal medium supplemented with 5 μM CHIR99021, 30 ng/mL bFGF, 10 ng/mL activin A (R&D Systems), and 30 μM Y-27632 (Wako). On Day 4, the cells were washed with PBS(−), treated with Accumax (Innovative Cell Technologies), and then dissociated into single cells by gentle pipetting, followed by plating into a 24-well plate (CORNING) at a density of 1.05×10^5 cells/cm^2 (2D culture) or plating into a 96-well low-cell-adhesive plate (Thermo Fisher Scientific) at a density of 2.0×10^4 cells/cm^2 (3D culture). Culture was performed for 48 hours using a basal medium supplemented with 5 μM CHIR99021, 30 ng/mL bFGF, 10 ng/mL activin A, and 30 μM Y-27632 (in addition, 1.2 μL/well iMatrix-511 or a laminin-E8 fragment library in the case of 2D culture). By this, HOXC10- and CITED1-positive PPS cells were induced.
For the PPS cells on Day 6 of the culture protocol in FIG. 1, several differentiation induction conditions were tested by combining various factors. […]

[4] = combination of CHIR99021 and SB431542, absence of SAG, 5% O2, FG-4592 and RA present, FIG. 9
[5] = BMP (10 or 100 ng/mL) added to CFR medium in the presence of SB431542 (1 μM), FIG. 11

Molecule: c1ccc2c(Oc3nc(Nc4ccc(N5CCOCC5)cc4)c4ncn(C5CCCCC5)c4n3)cccc2c1 [purmophamine, 9-cyclohexyl-N-[4-(4-morpholinyl)phenyl]-2-(1-naphthalenyloxy)-9H-purine-6-amine]
- EPO expression [1]: up-regulation of EPO

Molecule: CS(=O)(=O)c1ccc(C(=O)Nc2ccc(Cl)c(-c3ccccn3)c2)c(Cl)c1 [vismodegib]
- effect on the SAG-induced EPO up-regulation [1]: reduced the effect of SAG

Molecule: Cc1cccc(-c2nn(C(=S)Nc3ccccc3)cc2-c2ccnc3ccccc23)n1 [A83-01]
- EPO expression compared to the combination of SB431542 and SAG [1]: higher EPO expression

Molecule: VEGF
- expression of markers for juxtaglomerular (JG) cells and mesangial cells ([2]; VEGF 100 ng/mL added to CFR+B7+SB, Days 11 to 15, FIG. 14): increases

Molecule: CN(C)c1ccccc1CN1CCCN(Cc2ccccc2N(C)C)C1c1ccncc1 [GANT61]
- effect on the SAG-induced EPO up-regulation [1]: did not reduce the effect of SAG

Molecule: IL-1β: interleukin-1β, preferably human IL-1β protein
- induction efficiency for OSR1-positive FOXD1-positive cells [3]: increases

Molecule: NC(=O)c1ccc(-c2nc(-c3ccc4c(c3)OCO4)c(-c3ccccn3)[nH]2)cc1 [SB431542]
- expression of EPO [1]: increase the expression of EPO
- expression of renin [2, 4]: increase the expression of renin
- induction of FOXD1-positive cells [3]: could be induced

Molecule: Cc1c(C(=O)Nc2ccc(N3C[C@@H](C)O[C@@H](C)C3)nc2)cccc1-c1ccc(OC(F)(F)F)cc1 [sonidegib]
- effect on the SAG-induced EPO up-regulation [1]: reduced the effect of SAG

Molecule: Cc1c[nH]c(-c2cnc(NCCNc3ccc(C#N)cn3)nc2-c2ccc(Cl)cc2Cl)n1 [CHIR99021]
- expression of renin [2, 4]: increase the expression of renin
- induction of FOXD1-positive cells [3]: could be induced

Molecule: CNC1CCC(N(Cc2cccc(-c3ccncc3)c2)C(=O)c2sc3ccccc3c2Cl)CC1 (stereo not shown) [SAG]
- EPO expression [1]: up-regulation of EPO
- EPO expression compared to the combination of SB431542 and SAG [1]: higher EPO expression
- expression of EPO [1]: increase the expression of EPO
- induction efficiency for FOXD1-positive cells ([3]; SAG 500 nM added on Days 6 to 8 to CHIR99021+SB431542+RA, FIG. 5): further increased
- induction efficiency for OSR1-positive FOXD1-positive cells [3]: increases

Molecule: Cc1nn(-c2ccccc2)c(C)c1/C=N/N1CCN(Cc2ccccc2)CC1 [SANT-1]
- effect on the SAG-induced EPO up-regulation [1]: reduced the effect of SAG

B1: BMP5: bone morphogenetic protein 5 (protein, UniProt P22003 317-454, looked up)
Bone morphogenetic protein 5: AANKRKNQNRNKSSSHQDSSRMSSVGDYNTSEQKQACKKHELYVSFRDLGWQDWIIAPEGYAAFYCDGECSFPLNAHMNATNHAIVQTLVHLMFPDHVPKPCCAPTKLNAISVLYFDDSSNVILKKYRNMVVRSCGCH
- expression of renin [2, 5]: high expression of renin

B2: BMP7: bone morphogenetic protein 7 (protein, UniProt P18075 293-431, looked up)
Bone morphogenetic protein 7: STGSKQRSQNRSKTPKNQEALRMANVAENSSSDQRQACKKHELYVSFRDLGWQDWIIAPEGYAAYYCEGECAFPLNSYMNATNHAIVQTLVHFINPETVPKPCCAPTQLNAISVLYFDDSSNVILKKYRNMVVRACGCH
- expression of renin [2, 5]: high expression of renin
- expression of renin ([2]; added to CFR medium (CHIR99021, FG-4592, RA), absence of SAG, FIG. 10): positively affected

B3: BMP4: bone morphogenetic protein 4 (protein, UniProt P12644 293-408, looked up)
Bone morphogenetic protein 4: SPKHHSQRARKKNKNCRRHSLYVDFSDVGWNDWIVAPPGYQAFYCHGDCPFPLADHLNSTNHAIVQTLVNSVNSSIPKACCVPTELSAISMLYLDEYDKVVLKNYQEMVVEGCGCR
- expression of renin [2, 5]: high expression of renin
